Laboratory results published in ChEMBL document CHEMBL3244168, “Synthesis and antitumor activity of preactivated isophosphamide analogues bearing modified alkylating functionalities” (J Med Chem, 1978).
Converted amounts (≈) assume the structure as drawn. The source made the active and inactive calls. The rule behind the calls is not given here.

Assays:
L1210 [1] = experiment: Antileukemic activity against mouse L1210 cells allografted in ip dosed BDF1 mouse administered 24 hrs; assay type: functional
L1210 [2] = experiment: Antileukemic activity against mouse L1210 cells allografted in ip dosed BDF1 mouse assessed as maximum tolerated dose for survival over 30 days administered 24 hrs; assay type: functional
L1210 [3] = experiment: Ratio of ILSmax to ILS30 for antileukemic activity against mouse L1210 cells allografted in ip dosed BDF1 mouse; assay type: functional
L1210 [4] = experiment: Cytotoxicity against mouse L1210 cells assessed as growth inhibition after 72 hrs; assay type: functional; conditions: L1210, 72 h, read-out: ED50 (the source's name)
L1210 [5] = experiment: Antileukemic activity against mouse L1210 cells allografted in BDF1 mouse assessed as increase in life span at 530 mg/kg, ip administered 24 hrs relative to control; assay type: functional; conditions: route intraperitoneal
L1210 [6] = experiment: Ratio of Cmax to Cmin for antileukemic activity against mouse L1210 cells allografted in iv dosed BDF1 mouse assessed as survival over 60 days; assay type: functional
L1210 [7] = experiment: Antileukemic activity against mouse L1210 cells allografted in BDF1 mouse assessed as mean survival time at 330 mg/kg, ip administered 24 hrs (Rvb 4.6 +/- 0.16 days); assay type: functional; conditions: route intraperitoneal
L1210 [8] = experiment: Antileukemic activity against mouse L1210 cells allografted in BDF1 mouse assessed as mean survival time at 130 mg/kg, ip administered 24 hrs (Rvb 4.6 +/- 0.16 days); assay type: functional; conditions: route intraperitoneal
L1210 [9] = experiment: Antileukemic activity against mouse L1210 cells allografted in BDF1 mouse assessed as increase in life span at 130 mg/kg, ip administered 24 hrs relative to control; assay type: functional; conditions: route intraperitoneal
L1210 [10] = experiment: Antileukemic activity against mouse L1210 cells allografted in iv dosed BDF1 mouse assessed as maximum tolerated dose for survival over 60 days administered 24 hrs; assay type: functional
L1210 [11] = experiment: Antileukemic activity against mouse L1210 cells allografted in iv dosed BDF1 mouse assessed as survival over 60 days administered 24 hrs; assay type: functional; conditions: read-out: MED
L1210 [12] = experiment: Antileukemic activity against mouse L1210 cells allografted in BDF1 mouse assessed as mean survival time at 70 mg/kg, ip administered 24 hrs (Rvb 4.6 +/- 0.16 days); assay type: functional; conditions: route intraperitoneal
L1210 [13] = experiment: Antileukemic activity against mouse L1210 cells allografted in BDF1 mouse assessed as increase in life span at 330 mg/kg, ip administered 24 hrs relative to control; assay type: functional; conditions: route intraperitoneal
L1210 [14] = experiment: Antileukemic activity against mouse L1210 cells allografted in BDF1 mouse assessed as increase in life span at 70 mg/kg, ip administered 24 hrs relative to control; assay type: functional; conditions: route intraperitoneal
L1210 [15] = experiment: Antileukemic activity against mouse L1210 cells allografted in BDF1 mouse assessed as mean survival time at 530 mg/kg, ip administered 24 hrs (Rvb 4.6 +/- 0.16 days); assay type: functional; conditions: route intraperitoneal
L1210 [16] = experiment: Antileukemic activity against mouse L1210 cells allografted in po dosed BDF1 mouse assessed as maximum tolerated dose for survival over 60 days administered 24 hrs; assay type: functional
L1210 [17] = experiment: Antileukemic activity against mouse L1210 cells allografted in po dosed BDF1 mouse assessed as survival over 60 days administered 24 hrs; assay type: functional; conditions: read-out: MED
L1210 [18] = experiment: Ratio of Cmax to Cmin for antileukemic activity against mouse L1210 cells allografted in po dosed BDF1 mouse assessed as survival over 60 days; assay type: functional
Mus musculus [19] = experiment: Toxicity in BDF1 mouse allografted with mouse L1210 cells assessed as mortality at 80 mg/kg, ip administered 24 hrs measured within 30 days; assay type: organism-based; set-up: dose 80 mg/kg, route intraperitoneal; conditions: in vivo
L1210 [20] = experiment: Antileukemic activity against mouse L1210 cells allografted in BDF1 mouse assessed as increase in life span at 2 mg/kg, ip administered 24 hrs relative to control; assay type: functional; conditions: route intraperitoneal
Rattus norvegicus [21] = experiment: Acute toxicity in po dosed Wistar rat; assay type: organism-based; conditions: in vivo
L1210 [22] = experiment: Antileukemic activity against mouse L1210 cells allografted in BDF1 mouse assessed as mean survival time at 100 mg/kg, ip administered 24 hrs (Rvb 4.6 +/- 0.16 days); assay type: functional; conditions: route intraperitoneal
L1210 [23] = experiment: Antileukemic activity against mouse L1210 cells allografted in BDF1 mouse assessed as increase in life span at 50 mg/kg, ip administered 24 hrs relative to control; assay type: functional; conditions: route intraperitoneal
L1210 [24] = experiment: Antileukemic activity against mouse L1210 cells allografted in BDF1 mouse assessed as mean survival time at 2 mg/kg, ip administered 24 hrs (Rvb 4.6 +/- 0.16 days); assay type: functional; conditions: route intraperitoneal
L1210 [25] = experiment: Antileukemic activity against mouse L1210 cells allografted in BDF1 mouse assessed as increase in survivor over 30 days at 100 mg/kg, ip administered 24 hrs; assay type: functional, organism-based; set-up: dose 100 mg/kg
Mus musculus [26] = experiment: Acute toxicity in iv dosed BDF1 mouse; assay type: organism-based; conditions: in vivo
L1210 [27] = experiment: Antileukemic activity against mouse L1210 cells allografted in BDF1 mouse assessed as increase in life span at 10 mg/kg, ip administered 24 hrs relative to control; assay type: functional; conditions: route intraperitoneal
Mus musculus [28] = experiment: Acute toxicity in ip dosed BDF1 mouse; assay type: organism-based; conditions: in vivo
L1210 [29] = experiment: Antileukemic activity against mouse L1210 cells allografted in BDF1 mouse assessed as increase in life span at 100 mg/kg, ip administered 24 hrs relative to control; assay type: functional; conditions: route intraperitoneal
L1210 [30] = experiment: Antileukemic activity against mouse L1210 cells allografted in BDF1 mouse assessed as mean survival time at 50 mg/kg, ip administered 24 hrs (Rvb 4.6 +/- 0.16 days); assay type: functional; conditions: route intraperitoneal
L1210 [31] = experiment: Antileukemic activity against mouse L1210 cells allografted in BDF1 mouse assessed as mean survival time at 10 mg/kg, ip administered 24 hrs (Rvb 4.6 +/- 0.16 days); assay type: functional; conditions: route intraperitoneal
L1210 [32] = experiment: Antileukemic activity against mouse L1210 cells allografted in ip dosed BDF1 mouse assessed as maximum tolerated dose for survival over 60 days administered 24 hrs; assay type: functional
L1210 [33] = experiment: Ratio of Cmax to Cmin for antileukemic activity against mouse L1210 cells allografted in ip dosed BDF1 mouse assessed as survival over 60 days; assay type: functional
L1210 [34] = experiment: Antileukemic activity against mouse L1210 cells allografted in ip dosed BDF1 mouse assessed as survival over 60 days administered 24 hrs; assay type: functional; conditions: read-out: MED
Rattus norvegicus [35] = experiment: Acute toxicity in ip dosed Wistar rat; assay type: organism-based; conditions: in vivo
Rattus norvegicus [36] = experiment: Acute toxicity in iv dosed Wistar rat; assay type: organism-based; conditions: in vivo
Mus musculus [37] = experiment: Acute toxicity in po dosed BDF1 mouse; assay type: organism-based; conditions: in vivo
L1210 [38] = experiment: Antileukemic activity against mouse L1210 cells allografted in BDF1 mouse assessed as increase in life span at 400 mg/kg, ip administered 24 hrs relative to control
L1210 [39] = experiment: Antileukemic activity against mouse L1210 cells allografted in BDF1 mouse assessed as increase in life span at 200 mg/kg, ip administered 24 hrs relative to control; assay type: functional; conditions: route intraperitoneal
L1210 [40] = experiment: Antileukemic activity against mouse L1210 cells allografted in BDF1 mouse assessed as mean survival time at 200 mg/kg, ip administered 24 hrs (Rvb 4.6 +/- 0.16 days); assay type: functional; conditions: route intraperitoneal

| Compound | ILS30 (L1210 [1]) [mg/kg] | ILSmax (L1210 [2]) [mg/kg] | Ratio (L1210 [3]) | EC50 (L1210 [4]) [µg/mL] | Ratio (L1210 [6]) | MTD (L1210 [10]) [mg/kg] | minimal effective dose (L1210 [11]) [mg/kg] | MTD (L1210 [16]) [mg/kg] | minimal effective dose (L1210 [17]) [mg/kg] | Ratio (L1210 [18]) | other results |
| --- | --- | --- | --- | --- | --- | --- | --- | --- | --- | --- | --- |
| CN(CCCl)P1(=O)OCCC(OO)N1CCBr (stereo not given) | 7 | 35 | 5 | 0.5 (≈ 1.42 µM) |  |  |  |  |  |  |  |
| O=P1(NCCBr)OCCC(OO)N1CCBr (stereo not given) | 6 | 70 | 12 | 2 (≈ 5.24 µM) |  |  |  |  |  |  |  |
| O=P1(NCCCl)OCCCN1CCCl (stereo not given) [IFOSFAMIDE] |  |  |  |  | 1.1 | 320 | 280 | 250 | 250 | 1 | ILS at 530 mg/kg (L1210 [5]): > 251%; MST (L1210 [7]): >24.3 days; MST (L1210 [8]): 11.9 days; ILS at 130 mg/kg (L1210 [9]): 158%; MST (L1210 [12]): 8.8 days; ILS at 330 mg/kg (L1210 [13]): > 427%; ILS at 70 mg/kg (L1210 [14]): 90%; MST (L1210 [15]): >16.5 days |
| CS(=O)(=O)OCCN1C(OO)CCOP1(=O)N(CCCl)CCCl (stereo not given) | 10 | 80 | 8 | 0.06 (≈ 0.144 µM) |  |  |  |  |  |  | Activity (Mus musculus [19]): Toxic |
| CN(CCCl)P1(=O)OCCC(OO)N1CCOS(C)(=O)=O (stereo not given) | 2 | 80 | 40 | 0.8 (≈ 2.18 µM) | 6.6 | 100 | 15 | 200 | 50 | 4 | ILS at 2 mg/kg (L1210 [20]): 44%; LD10 (Rattus norvegicus [21]): 238 mg/kg; MST (L1210 [22]): >15.8 days; ILS at 50 mg/kg (L1210 [23]): > 468%; MST (L1210 [24]): 6.6 days; Activity (L1210 [25]): Active; LD10 (Mus musculus [26]): 120 mg/kg; ILS at 10 mg/kg (L1210 [27]): 147%; LD10 (Mus musculus [28]): 134 mg/kg; ILS at 100 mg/kg (L1210 [29]): > 242%; MST (L1210 [30]): >26.1 days; MST (L1210 [31]): 11.4 days; MTD (L1210 [32]): 100 mg/kg; Ratio (L1210 [33]): 10; minimal effective dose (L1210 [34]): 10 mg/kg; LD10 (Rattus norvegicus [35]): 41 mg/kg; LD10 (Rattus norvegicus [36]): 66 mg/kg; LD10 (Mus musculus [37]): 284 mg/kg |
| O=P1(N(CCCl)CCCl)NCCCO1 (stereo not given) [CYCLOPHOSPHAMIDE ANHYDROUS] |  |  |  |  | 1 | 200 | 200 | 200 | 200 | 1 | MST (L1210 [22]): 12.4 days; ILS at 50 mg/kg (L1210 [23]): 68%; ILS at 400 mg/kg (L1210 [38]): > 283%; ILS at 100 mg/kg (L1210 [29]): 169%; MST (L1210 [30]): 7.8 days; MTD (L1210 [32]): 200 mg/kg; Ratio (L1210 [33]): 2; minimal effective dose (L1210 [34]): 100 mg/kg; ILS at 200 mg/kg (L1210 [39]): > 310%; MST (L1210 [40]): >18.9 days |
| CN(CCOS(C)(=O)=O)P1(=O)OCCC(OO)N1CCCl (stereo not given) | 3 | 60 | 20 | 0.5 (≈ 1.36 µM) |  |  |  |  |  |  |  |
